Measurements from patent US9573972B2, “Nurotoxic sterol glycosides” (priority 2008, dated 2017).
“Also recorded” adds a separate entry of the source.

What was measured:
Format in all cases: in vivo, mouse
[1] = test system: choline acetyl transferase (ChAT) immunoreactive cells; assay: Anti-ChAT immunofluorescence, cholinergic neuron counts; details: for Fewer cholinergic neurons than control: SG-fed; for Cholinergic neurons, change: ventral horn lumbar spinal cord, SG-fed vs control
Procedure: Tissue-mounted slides were processed for fluorescence microscopy as follows: Sections were rinsed in coplin jars for 45 minutes at room temperature (RT) in three changes of PBS. Sections were then incubated at RT for 30 minutes in a blocking permeabilization solution made of 5% normal goat serum (NGS), 5% normal rabbit serum (NRS) or 5% BlokHen II (Ayes Labs, Inc., Tigard, Oreg.), 0.05% Triton X-100 and PBS. Subsequently, the blocking solution was tipped off and the slides were rinsed in PBS for 2 minutes. Sections were then incubated overnight in a humidified chamber at 4° C. with a PBS buffered solution that contained 1% NGS or 1% NRS, 1% bovine serum albumin (BSA) and one of the following primary antibodies: (a) rabbit anti-human/mouse ATF-3 (H-90) IgG (polyclonal, 1:500; Santa Cruz Biotechnology, Inc., Santa Cruz, Calif.), (b) anti-activated caspase-3 IgG (monoclonal, 1:250; Chemicon International, Temecula, Calif.) (see FIG. 9), (c) goat antihuman/mouse choline acetyl transferase (ChAT) IgG (polyclonal, 1:100; Chemicon International, Temecula, Calif.) (see FIG. 6), (d) rabbit anti-mouse glial fibrillary acidic protein IgG (polyclonal, 1:250; GeneTex Inc., San Antonio, Tex.) (see FIG. 7), (e) rabbit antihuman/mouse ionized calcium binding adaptor molecule 1 (IBA-1) IgG (polyclonal, 1:500; Wako Pure Chemical Industries, Ltd, Richmond, Va.), (f) mouse anti-human/mouse clone AT8 PHF-1 Tau (monoclonal, 1:200; Pierce Biotechnology Inc., Rockford, Ill.), (g) rabbit anti-human/mouse TAR DNA-binding protein 43 (TDP43) (1:100; ProteinTech Group Inc., Chicago, Ill.) (See FIG. 14), (h) chicken anti-human/mouse β-tubulin 3 (TuJ1 antigen) (polyclonal, 1:100, Ayes Labs, Inc., Tigard, Oreg.), (i) rabbit anti-mouse tyrosine hydroxylase (polyclonal, 1:500, Chemicon International, Temecula, Calif. or polyclonal 1:1000, Affinity BioReagents, Golden, Colo.) (FIG. 10), (j) rabbit anti human/mouse anti-pJunscr73 IgG (polyclonal, 1:200; Chemicon International, Temecula, Calif.), (k) rabbit anti human/mouse anti-HSP-70 IgG (polyclonal, 1:200; Chemicon International, Temecula, Calif.), or (1) rabbit anti human/mouse anti-HSP-25 IgG (polyclonal, 1:100; Chemicon International, Temecula, Calif.). In each experiment, additional slides were incubated with the primary antibody and the secondary antibody omitted or with secondary antibody and primary antibody omitted to test for nonspecific staining. Where appropriate, positive control slides (Alzheimer's disease patient entorhinal cortex, obtained from Drs. Claudia Schwab and Patrick McGeer of the Kinsmen Laboratory, University of British Columbia, Vancouver, BC, Canada) were also processed as above for comparison. […]

male CD-1 mice [2] = assay: Leg extension reflex test, SG-fed mice
Source text: (§1) Five-month old male CD-1 mice (30.1-35.7 g, 7.5 cm-8.8 cm) were purchased from Charles River (Wilmington, Mass.). Adult mice were chosen to mimic the mean age of onset of ALS-PDC (Kurland, L. T. (1988a) Trends Neurosci. 11, 51-4; Kurland, L. T., et al. (1994) Amyotrophic lateral sclerosis-parkinsonism-dementia complex on Guam: epidemiologic and etiological perspectives. 109-131). Thirty mice for the SG study were randomly divided into 2 groups (14 control and 16 experimental animals). All animals were housed singly in a virus-free barrier facility in a room maintained at 22° C. under a 12 hour light/dark cycle. The mice were provided ad libitum access to food and water.
The synthetic SG was mixed with finely ground Purina Chow mouse pellets (Mouse Diet™, Purina) to create the experimental pellets with a SG content of 1000 μg per pellet. Dry materials were blended with a sterile silicon spatula. For every 5 g of standard feed, 2.5 mL of doubly-distilled water (dd)H2O was added and the dough was kneaded and round up into pellets. […] SG feeding was conducted daily for 15 weeks and mice were behaviorally monitored until sacrifice at 35 weeks (time point 1) or 52 weeks (time point 2).
Leg extension reflex test: The leg extension reflex test was used as a measure of motor neuron dysfunction (Barneoud et al., 1999). […] The leg extension reflex was measured three times per week in each animal. […]

male CD-1 mice [3] = assay: Wire hang test, SG-fed mice
Source text: as §1
The synthetic SG was mixed with finely ground Purina Chow mouse pellets (Mouse Diet™, Purina) to create the experimental pellets with a SG content of 1000 μg per pellet. Dry materials were blended with a sterile silicon spatula. For every 5 g of standard feed, 2.5 mL of doubly-distilled water (dd)H2O was added and the dough was kneaded and round up into pellets. A single sterol glucoside containing pellet was placed in the feeding tray each morning before the addition of regular mouse chow (ad libitum). All experimental pellets were entirely consumed by the mice each day. Control mice were fed standard mouse chow pellets of identical weight with no additives. SG feeding was conducted daily for 15 weeks and mice were behaviorally monitored until sacrifice at 35 weeks (time point 1) or 52 weeks (time point 2).
Wire hang: Neuromuscular strength was tested by the wire hang (or hanging wire) test (Wilson, J., et al. (2003d) Neuromolecular Med. 3, 105-18; Wilson, J. M., et al. (2004c) Neuroimage. 23, 336-43; Wilson, J. M., et al. (2005) Soc Neurosci. Abstr. online; Tabata, R. C., et al. (2008) Neuromolecular Med. 10, 24-39). Both balance and grip strength are required for a mouse to keep its body suspended (Crawley, 2000). […] The latency to fall off the wire (maximum 60 seconds) (Sango et al., 1996) was measured from the moment the wire apparatus was inverted (180°). […]

[4] = SG-fed vs control, Time-point 2 (52 wk)

CC[C@H](/C=C/[C@@H](C)[C@H]1CC[C@H]2[C@@H]3CC=C4C[C@@H](O[C@@H]5O[C@H](CO)[C@@H](O)[C@H](O)[C@H]5O)CC[C@]4(C)[C@H]3CC[C@]12C)C(C)C [SG, Stigmasterol β-D-Glucopyranoside]
Fewer cholinergic neurons than control ([1]; 35 weeks): 18%
Fewer cholinergic neurons than control ([1]; 52 weeks): 32%
Cholinergic neurons, change ([1]; Time-point 1 (35 wk)): Cholinergic neurons (−18%)
Cholinergic neurons, change ([1]; Time-point 2 (52 wk)): Cholinergic neurons (−32%)
Leg extension (male CD-1 mice [2]; [4]): Leg extension* (*p < 0.05)
Leg extension reflex test performance (score 0-4) (male CD-1 mice [2]; SG-fed, duration of study): decreased; also recorded: steady decline in performance
Increase in the time between inversion of the apparatus and falling (male CD-1 mice [3]; SG fed mice, control group showed an increase): did not
Wirehang (male CD-1 mice [3]; [4]): Wirehang* (*p < 0.05)
Wirehang performance (male CD-1 mice [3]; SG-fed vs control, prior to 35 weeks): decline in performance
